Calls of active or inactive are those of the source.
Key:
[1] = biological target: T1, Replicative DNA helicase DnaB (Mycobacterium tuberculosis, UniProt P9WMR3); assay: DnaB intein splicing inhibitors, dose response, biochemical, cell-free fluorescence (AID 449749); type: functional
T1 sequence (P9WMR3 whole entry): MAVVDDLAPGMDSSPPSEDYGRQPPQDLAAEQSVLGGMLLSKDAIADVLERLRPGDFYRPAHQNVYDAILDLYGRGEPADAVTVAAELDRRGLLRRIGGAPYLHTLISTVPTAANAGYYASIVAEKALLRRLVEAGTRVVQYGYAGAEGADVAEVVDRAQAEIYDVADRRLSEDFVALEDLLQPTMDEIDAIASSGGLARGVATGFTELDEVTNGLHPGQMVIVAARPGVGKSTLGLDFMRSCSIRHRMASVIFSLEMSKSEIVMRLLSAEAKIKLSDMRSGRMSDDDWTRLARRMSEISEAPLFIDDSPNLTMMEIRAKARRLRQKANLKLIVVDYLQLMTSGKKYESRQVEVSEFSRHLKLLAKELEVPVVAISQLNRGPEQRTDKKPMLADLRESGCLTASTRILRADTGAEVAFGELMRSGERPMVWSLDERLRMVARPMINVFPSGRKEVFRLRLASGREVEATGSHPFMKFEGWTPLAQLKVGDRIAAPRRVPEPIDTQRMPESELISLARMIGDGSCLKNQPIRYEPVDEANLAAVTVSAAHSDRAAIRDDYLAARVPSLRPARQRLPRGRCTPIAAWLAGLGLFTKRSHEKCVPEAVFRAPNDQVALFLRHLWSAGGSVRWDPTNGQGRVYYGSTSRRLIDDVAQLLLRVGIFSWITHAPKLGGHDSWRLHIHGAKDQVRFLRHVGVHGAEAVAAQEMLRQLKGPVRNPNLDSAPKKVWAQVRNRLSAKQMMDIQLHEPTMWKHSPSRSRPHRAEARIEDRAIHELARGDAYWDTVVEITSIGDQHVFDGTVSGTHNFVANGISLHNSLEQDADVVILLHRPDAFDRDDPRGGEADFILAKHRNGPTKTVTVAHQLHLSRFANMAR

Protein RecA = biological target: T2, Protein RecA (Mycobacterium tuberculosis, UniProt P9WHJ3); assay: Fluorescence Cell-Free Homogeneous Dose Retest to Identify Inhibitors of RecA-Intein Splicing Activity. [Related pubchem assays (depositor defined):AID2097, AID2223, AID489010, AID492950]; type: functional
T2 sequence (P9WHJ3 whole entry): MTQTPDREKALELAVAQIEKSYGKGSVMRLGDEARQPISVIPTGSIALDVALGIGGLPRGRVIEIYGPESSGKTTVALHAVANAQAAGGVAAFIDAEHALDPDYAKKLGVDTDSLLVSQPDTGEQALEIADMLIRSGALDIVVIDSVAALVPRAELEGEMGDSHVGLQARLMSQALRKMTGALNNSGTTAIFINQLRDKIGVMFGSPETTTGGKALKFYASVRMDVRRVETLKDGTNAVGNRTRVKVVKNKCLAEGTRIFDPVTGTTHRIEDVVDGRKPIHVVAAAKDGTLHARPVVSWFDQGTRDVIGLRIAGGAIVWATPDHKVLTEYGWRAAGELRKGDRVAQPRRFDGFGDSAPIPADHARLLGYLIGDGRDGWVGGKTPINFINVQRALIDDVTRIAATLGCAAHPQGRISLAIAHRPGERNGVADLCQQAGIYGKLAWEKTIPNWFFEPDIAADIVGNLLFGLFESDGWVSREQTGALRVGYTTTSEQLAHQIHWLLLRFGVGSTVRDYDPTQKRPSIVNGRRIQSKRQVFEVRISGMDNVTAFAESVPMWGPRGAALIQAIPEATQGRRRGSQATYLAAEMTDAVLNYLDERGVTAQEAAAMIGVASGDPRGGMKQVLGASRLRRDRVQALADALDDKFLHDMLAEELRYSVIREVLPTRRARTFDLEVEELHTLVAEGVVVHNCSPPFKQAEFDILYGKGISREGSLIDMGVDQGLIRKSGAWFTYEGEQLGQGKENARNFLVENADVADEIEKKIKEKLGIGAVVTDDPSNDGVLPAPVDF

Protein skinhead-1 = biological target: T3, Protein skinhead-1 (Caenorhabditis elegans, UniProt P34707); type: functional
T3 sequence (P34707 whole entry): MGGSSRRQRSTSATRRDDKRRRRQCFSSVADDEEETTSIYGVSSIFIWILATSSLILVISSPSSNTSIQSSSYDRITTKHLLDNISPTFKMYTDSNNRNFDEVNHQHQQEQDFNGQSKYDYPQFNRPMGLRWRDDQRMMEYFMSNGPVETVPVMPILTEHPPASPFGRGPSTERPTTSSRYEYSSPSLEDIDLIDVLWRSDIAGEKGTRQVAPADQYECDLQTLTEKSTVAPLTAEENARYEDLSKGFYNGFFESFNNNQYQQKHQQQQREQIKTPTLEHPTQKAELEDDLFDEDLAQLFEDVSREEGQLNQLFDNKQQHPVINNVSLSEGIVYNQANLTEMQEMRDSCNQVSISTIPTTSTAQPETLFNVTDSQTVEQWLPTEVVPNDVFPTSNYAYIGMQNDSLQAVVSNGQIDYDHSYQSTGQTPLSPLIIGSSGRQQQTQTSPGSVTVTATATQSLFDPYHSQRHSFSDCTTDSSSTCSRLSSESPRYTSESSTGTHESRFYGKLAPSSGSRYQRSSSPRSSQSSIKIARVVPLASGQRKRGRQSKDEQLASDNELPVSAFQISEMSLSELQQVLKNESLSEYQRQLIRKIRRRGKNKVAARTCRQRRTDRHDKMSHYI

BJ [2] = assay: cytotoxicity toward BJ-TERT fibroblasts, dose response, cell-based, RAS-independent, luminescence (AID 1933); type: functional; conditions: Homo sapiens
BJ [3] = assay: cells; type: functional, cell-based; conditions: Homo sapiens
[4] = microbe, parasite or virus in culture; type: functional; conditions: Mycobacterium tuberculosis
BJ [5] = assay: cytotoxicity toward BJ-TERT-LT-ST fibroblasts, dose response, cell-based, RAS-independent, luminescence (AID 1935); type: functional; conditions: Homo sapiens;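 also: BJ fibroblasts immortalized with TERT plus LT and ST oncogenes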
[6] = cytotoxicity toward DRD oncogenic fibroblasts, dose response, cell-based, non-viral oncogenic, luminescence (AID 1934); type: functional; conditions: Homo sapiens
[7] = biological target: T4, Calpain-2 catalytic subunit (Sus scrofa, UniProt P43367); assay: pig calpain II inhibitor potency, dose response, biochemical, fluorogenic peptide substrate (AID 1420); type: functional
T4 sequence (P43367 whole entry): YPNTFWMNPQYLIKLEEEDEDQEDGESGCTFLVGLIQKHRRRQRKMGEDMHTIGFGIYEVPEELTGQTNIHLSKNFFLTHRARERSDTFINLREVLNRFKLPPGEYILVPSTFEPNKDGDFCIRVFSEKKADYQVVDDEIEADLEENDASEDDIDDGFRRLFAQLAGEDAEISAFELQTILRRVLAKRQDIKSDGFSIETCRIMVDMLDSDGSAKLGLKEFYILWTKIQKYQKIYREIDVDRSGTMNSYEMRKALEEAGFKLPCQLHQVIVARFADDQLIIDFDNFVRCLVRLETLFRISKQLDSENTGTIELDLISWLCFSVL

[8] = inhibitors of intracellular T. cruzi replication, confirmation, NIH3T3 host cells, beta-gal luminescence (AID 2044); type: functional, cell-based;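 also: intracellular parasites grown in NIH/3T3 mouse fibroblasts as host cells; luminescent beta-galactosidase reporter signal from transgenic T. cruzi replicating inside host cells; inhibitors lower the luminescence signal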
[9] = cytotoxicity toward NIH3T3 fibroblasts, dose response, counter-screen, cell-based, ATP luminescence, mouse fibroblasts (AID 2010); type: functional;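 also: cells exposed to compound for about 90 hours before reading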
[10] = Luminescence Cell-Based Dose Retest to Confirm Inhibitors of Cancer Stem Cells. [Related pubchem assays (depositor defined):AID2717, AID2721]; type: functional; conditions: Homo sapiens
Leucine aminopeptidase = biological target: T5, Leucine aminopeptidase (Plasmodium falciparum 3D7, UniProt Q8IL11); assay: P. falciparum M17LAP inhibitors, primary screen, biochemical, fluorogenic H-Leu-NHMec substrate, 1536-well (AID 1619); type: functional
T5 sequence (Q8IL11 whole entry): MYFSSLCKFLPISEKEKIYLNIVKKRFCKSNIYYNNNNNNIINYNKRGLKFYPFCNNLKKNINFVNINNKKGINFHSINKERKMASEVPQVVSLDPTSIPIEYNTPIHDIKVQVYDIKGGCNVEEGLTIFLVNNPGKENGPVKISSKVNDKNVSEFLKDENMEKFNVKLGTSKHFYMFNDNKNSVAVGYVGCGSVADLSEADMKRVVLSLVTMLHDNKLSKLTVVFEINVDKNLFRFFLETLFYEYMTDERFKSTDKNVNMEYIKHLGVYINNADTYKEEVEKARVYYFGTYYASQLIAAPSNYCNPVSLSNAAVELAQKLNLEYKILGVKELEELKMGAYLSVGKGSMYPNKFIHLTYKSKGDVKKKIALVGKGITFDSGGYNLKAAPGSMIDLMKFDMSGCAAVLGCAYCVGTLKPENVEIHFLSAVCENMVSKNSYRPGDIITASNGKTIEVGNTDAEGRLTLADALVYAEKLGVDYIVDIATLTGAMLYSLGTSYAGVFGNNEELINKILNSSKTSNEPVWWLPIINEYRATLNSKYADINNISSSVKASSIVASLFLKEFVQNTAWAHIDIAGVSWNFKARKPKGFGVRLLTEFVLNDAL

[11] = inhibitors of HIV Env-driven cell fusion, dose response, cherry-pick (AID 652057); type: functional, cell-based
[12] = ZM109 Env clade C HIV-1 fusion inhibitors, dose response, HeLa effector, CEM target cells, luciferase, cherry-pick (AID 652058); type: functional, cell-based
[13] = inhibitors of clade B AD8 Env fusion, dose response, cell-based, cherry-pick (AID 652062); type: functional;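 also: luciferase signal from cell-cell fusion driven by HIV-1 clade B AD8 Env; potency is for inhibitors of fusion seen as a drop in luminescence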
[14] = P. falciparum Dd2 growth inhibitors, dose response, SYBR Green, cherry-picked samples (AID 1159567); type: functional, cell-based

Structure (SMILES): Oc1ccc(O)c(Cc2nc3ccccc3s2)c1
- AC50 [1]: 33.1 µM (active)
- EC50 (Protein RecA): > 380 µM (inactive)

Structure (SMILES): O=C(CSc1nnnn1C1CCCCC1)Nc1cccc(NC(=O)c2ccco2)c1
- IC50 (Protein skinhead-1): > 100 µM (inactive)

Structure (SMILES): CN(Cc1ccc(Cl)s1)C(=O)CCl
- EC50 (BJ [2]): 5.73 µM (active)
- EC50 (BJ [3]): > 150 µM (inconclusive)
- CC50 [4]: 11.7 µM (active)
- EC50 (BJ [5]): > 150 µM (inconclusive)
- EC50 [6]: 27.6 µM (active)
- AC50 [1]: 50.5 µM (active)
- EC50 (Protein RecA): 8.93 µM (active)

Structure (SMILES): CC(C)CCN(C(=O)Nc1ccccc1)C(C)c1cccs1 (centres undefined)
- IC50 [7]: 20.3 µM (not active)

Structure (SMILES): CCN=C(S)N(CCc1c(C)[nH]c2ccc(Cl)cc12)Cc1ccco1
- EC50 [8]: 2.81 µM (active)
- IC50 [7]: 9.05 µM (not active)
- EC50 [9]: > 60 µM (not active)

Structure (SMILES): CCCC(=O)Nc1ccccc1NC(=O)CCC
- IC50 [7]: > 50 µM (not active)

Structure (SMILES): O=C(/C=C/Nc1ccc(F)c(F)c1)c1cccs1
- IC50 (Protein skinhead-1): 18.2 µM (active)

Structure (SMILES): CN(CC(=O)Nc1nc2ccccc2s1)S(=O)(=O)c1ccc(Cl)cc1
- IC50 (Protein skinhead-1): > 100 µM (inactive)

Structure (SMILES): O=C(Nc1ccc(Cl)c(Cl)c1)Nc1ccccc1NS(=O)(=O)c1cccs1
- AC50 [10]: 7.6 µM (active)
- AC50 [1]: 4.19 µM (active)
- EC50 (Protein RecA): 29.1 µM (active)

Structure (SMILES): Cc1ccc(Nc2nc(-c3cccs3)cs2)nc1
- IC50 (Protein skinhead-1): 54.6 µM (inactive)

Structure (SMILES): N#CC1=C(N)Oc2[nH]nc(-c3ccc(F)cc3)c2C1c1cccnc1 (centres undefined)
- IC50 (Leucine aminopeptidase): 61.2 µM (active)
- AC50 [1]: 7.8 µM (active)
- EC50 (Protein RecA): 1.63 µM (active)

Structure (SMILES): CN(C(=O)c1ccco1)c1nc(-c2ccccc2)cs1
- IC50 (Protein skinhead-1): 100 µM (inactive)

Structure (SMILES): Cc1cccc(N2CCN(C(=O)CN3C(=O)C4CC=CCC4C3=O)CC2)c1C (centres undefined)
- IC50 [7]: > 50 µM (not active)

Structure (SMILES): Cc1ccccc1-n1c(SCC(=O)O)nc2sc3c(c2c1=O)CCCC3
- IC50 (Protein skinhead-1): > 100 µM (inactive)

Structure (SMILES): C/C(=N\NC(=S)NC1CCCCC1)c1ccc(OC(F)F)cc1OC(F)F
- IC50 [7]: 3.12 µM (not active)

Structure (SMILES): C[C@H]1CN([C@@H](C)CO)C(=O)c2ccccc2-c2ccccc2CO[C@@H]1CN(C)C(=O)CCC(F)(F)F
- AC50 [11]: 1.1 µM (active)
- AC50 [12]: 1.48 µM (active)
- AC50 [13]: 2.55 µM (active)

Structure (SMILES): COc1ccccc1NC(=O)N[C@H]1C=C[C@@H](CC(=O)N[C@H](C)c2ccccc2)O[C@H]1CO
- AC50 [11]: 4.72 µM (active)
- AC50 [12]: 3.38 µM (active)
- AC50 [13]: 11 µM (active)

Structure (SMILES): CCSc1ncc(/C=N/Nc2ccccc2)n1C
- IC50 (Protein skinhead-1): > 100 µM (inactive)

Structure (SMILES): CCC(=O)N1C[C@H](C)[C@H](OC)CN(C)C(=O)c2cc(NC(=O)Nc3cccc(F)c3)ccc2OC[C@@H]1C
- AC50 [14]: 9.89 µM (active)

Structure (SMILES): O=C(C[C@H]1C[C@H]2c3cc(NC(=O)Nc4ccccc4)ccc3O[C@H]2[C@@H](CO)O1)NC1CCCC1
- AC50 [14]: 6.1 µM (active)

Structure (SMILES): O=C(C[C@@H]1CC[C@@H]2[C@H](COC[C@@H](O)CN2C(=O)c2ccccc2F)O1)NCc1ccc(-c2ccccc2)cc1
- AC50 [14]: 6.33 µM (active)

Structure (SMILES): COc1cccc(S(=O)(=O)N(C)C[C@@H]2Oc3ncc(C#Cc4ccc(C(F)(F)F)cc4)cc3C(=O)N([C@H](C)CO)C[C@@H]2C)c1
- AC50 [14]: 4.11 µM (active)

From ChEMBL document CHEMBL1201862, “PubChem BioAssay data set” (2004)
